Columns and labels:
Test in all cases: Test F pre-/postemergence plant response
Format in all cases: in vivo
Details in all cases: scale 0 to 100
[1] = tested on: ragweed (common ragweed, Ambrosia elatior)
Outline: (§1)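 Herbicidal effect judged by eye against controls, scored 0–100 (complete control = 100). Applications: pre-emergence onto seeded silt loam, post-emergence onto 2–18 cm seedlings; greenhouse, 14–21 days.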

[2] = tested on: sandbur (southern sandbur, Cenchrus echinatus)
Outline: as §1

[3] = tested on: dayflower (Virginia (VA) dayflower, Commelina virginica)
Outline: as §1

corn (Zea mays) = tested on: corn (Zea mays)
Outline: as §1

[4] = tested on: palmer pigweed (Amaranthus palmeri)
Outline: as §1

[5] = tested on: hairy beggarticks (Bidens pilosa)
Outline: as §1

[6] = tested on: Italian ryegrass (Lolium multiflorum)
Outline: as §1

soybean (Glycine max) = tested on: soybean (Glycine max)
Outline: as §1

[7] = tested on: arrowleaf sida (Sida rhombifolia)
Outline: as §1

[8] = tested on: barnyardgrass (Echinochloa crus-galli)
Outline: as §1

[9] = tested on: waterhemp (common waterhemp, Amaranthus rudis)
Outline: as §1

Structure (SMILES): FC(F)c1cc(-c2ccccc2Oc2ncc(Br)cn2)on1 [Compound 212]
- Plant response rating, Ragweed ([1]; 16 g ai/ha Postemergence): 20
- Plant response rating, Ragweed ([1]; 31 g ai/ha Postemergence): 20
- Plant response rating, Ragweed ([1]; 62 g ai/ha Postemergence): 30
- Plant response rating, Ragweed ([1]; 125 g ai/ha Postemergence): 50
- Plant response rating, Sandbur ([2]; 16 g ai/ha Postemergence): 0
- Plant response rating, Sandbur ([2]; 31 g ai/ha Postemergence): 0
- Plant response rating, Sandbur ([2]; 62 g ai/ha Postemergence): 0
- Plant response rating, Sandbur ([2]; 125 g ai/ha Postemergence): 10
- Plant response rating, Dayflower, VA ([3]; 16 g ai/ha Postemergence): 30
- Plant response rating, Dayflower, VA ([3]; 31 g ai/ha Postemergence): 20
- Plant response rating, Dayflower, VA ([3]; 62 g ai/ha Postemergence): 40
- Plant response rating, Dayflower, VA ([3]; 125 g ai/ha Postemergence): 50
- Plant response rating, Corn (corn (Zea mays); 16 g ai/ha Postemergence): 0
- Plant response rating, Corn (corn (Zea mays); 31 g ai/ha Postemergence): 0
- Plant response rating, Corn (corn (Zea mays); 62 g ai/ha Postemergence): 0
- Plant response rating, Corn (corn (Zea mays); 125 g ai/ha Postemergence): 0
- Plant response rating, Pigweed, Palmer ([4]; 16 g ai/ha Postemergence): 30
- Plant response rating, Pigweed, Palmer ([4]; 31 g ai/ha Postemergence): 75
- Plant response rating, Pigweed, Palmer ([4]; 62 g ai/ha Postemergence): 100
- Plant response rating, Pigweed, Palmer ([4]; 125 g ai/ha Postemergence): 98
- Plant response rating, Beggarticks ([5]; 16 g ai/ha Postemergence): 25
- Plant response rating, Beggarticks ([5]; 31 g ai/ha Postemergence): 40
- Plant response rating, Beggarticks ([5]; 62 g ai/ha Postemergence): 40
- Plant response rating, Beggarticks ([5]; 125 g ai/ha Postemergence): 40
- Plant response rating, Ryegrass, Italian ([6]; 16 g ai/ha Postemergence): 0
- Plant response rating, Ryegrass, Italian ([6]; 31 g ai/ha Postemergence): 0
- Plant response rating, Ryegrass, Italian ([6]; 62 g ai/ha Postemergence): 0
- Plant response rating, Ryegrass, Italian ([6]; 125 g ai/ha Postemergence): 0
- Plant response rating, Soybean (soybean (Glycine max); 16 g ai/ha Postemergence): 50
- Plant response rating, Soybean (soybean (Glycine max); 31 g ai/ha Postemergence): 50
- Plant response rating, Soybean (soybean (Glycine max); 62 g ai/ha Postemergence): 75
- Plant response rating, Soybean (soybean (Glycine max); 125 g ai/ha Postemergence): 95
- Plant response rating, Arrowleaf Sida ([7]; 16 g ai/ha Postemergence): 75
- Plant response rating, Arrowleaf Sida ([7]; 31 g ai/ha Postemergence): 70
- Plant response rating, Arrowleaf Sida ([7]; 62 g ai/ha Postemergence): 85
- Plant response rating, Arrowleaf Sida ([7]; 125 g ai/ha Postemergence): 100
- Plant response rating, Barnyardgrass ([8]; 16 g ai/ha Postemergence): 0
- Plant response rating, Barnyardgrass ([8]; 31 g ai/ha Postemergence): 0
- Plant response rating, Barnyardgrass ([8]; 62 g ai/ha Postemergence): 0
- Plant response rating, Barnyardgrass ([8]; 125 g ai/ha Postemergence): 10
- Plant response rating, Waterhemp ([9]; 16 g ai/ha Postemergence): 90
- Plant response rating, Waterhemp ([9]; 31 g ai/ha Postemergence): 90
- Plant response rating, Waterhemp ([9]; 62 g ai/ha Postemergence): 95
- Plant response rating, Waterhemp ([9]; 125 g ai/ha Postemergence): 100

Structure (SMILES): Fc1ccc(Oc2ncc(Cl)cn2)c(-c2cc(C(F)(Cl)Cl)on2)c1 [Compound 221]
- Plant response rating, Ragweed ([1]; 16 g ai/ha Postemergence): 50
- Plant response rating, Ragweed ([1]; 31 g ai/ha Postemergence): 60
- Plant response rating, Ragweed ([1]; 62 g ai/ha Postemergence): 70
- Plant response rating, Ragweed ([1]; 125 g ai/ha Postemergence): 80
- Plant response rating, Sandbur ([2]; 16 g ai/ha Postemergence): 0
- Plant response rating, Sandbur ([2]; 31 g ai/ha Postemergence): 0
- Plant response rating, Sandbur ([2]; 62 g ai/ha Postemergence): 0
- Plant response rating, Sandbur ([2]; 125 g ai/ha Postemergence): 0
- Plant response rating, Dayflower, VA ([3]; 16 g ai/ha Postemergence): 60
- Plant response rating, Dayflower, VA ([3]; 31 g ai/ha Postemergence): 70
- Plant response rating, Dayflower, VA ([3]; 62 g ai/ha Postemergence): 80
- Plant response rating, Dayflower, VA ([3]; 125 g ai/ha Postemergence): 80
- Plant response rating, Corn (corn (Zea mays); 16 g ai/ha Postemergence): 5
- Plant response rating, Corn (corn (Zea mays); 31 g ai/ha Postemergence): 10
- Plant response rating, Corn (corn (Zea mays); 62 g ai/ha Postemergence): 10
- Plant response rating, Corn (corn (Zea mays); 125 g ai/ha Postemergence): 20
- Plant response rating, Pigweed, Palmer ([4]; 16 g ai/ha Postemergence): 85
- Plant response rating, Pigweed, Palmer ([4]; 31 g ai/ha Postemergence): 90
- Plant response rating, Pigweed, Palmer ([4]; 62 g ai/ha Postemergence): 100
- Plant response rating, Pigweed, Palmer ([4]; 125 g ai/ha Postemergence): 100
- Plant response rating, Beggarticks ([5]; 16 g ai/ha Postemergence): 50
- Plant response rating, Beggarticks ([5]; 31 g ai/ha Postemergence): 60
- Plant response rating, Beggarticks ([5]; 62 g ai/ha Postemergence): 70
- Plant response rating, Beggarticks ([5]; 125 g ai/ha Postemergence): 70
- Plant response rating, Ryegrass, Italian ([6]; 16 g ai/ha Postemergence): 0
- Plant response rating, Ryegrass, Italian ([6]; 31 g ai/ha Postemergence): 0
- Plant response rating, Ryegrass, Italian ([6]; 62 g ai/ha Postemergence): 0
- Plant response rating, Ryegrass, Italian ([6]; 125 g ai/ha Postemergence): 5
- Plant response rating, Soybean (soybean (Glycine max); 16 g ai/ha Postemergence): 60
- Plant response rating, Soybean (soybean (Glycine max); 31 g ai/ha Postemergence): 95
- Plant response rating, Soybean (soybean (Glycine max); 62 g ai/ha Postemergence): 98
- Plant response rating, Soybean (soybean (Glycine max); 125 g ai/ha Postemergence): 95
- Plant response rating, Arrowleaf Sida ([7]; 16 g ai/ha Postemergence): 80
- Plant response rating, Arrowleaf Sida ([7]; 31 g ai/ha Postemergence): 90
- Plant response rating, Arrowleaf Sida ([7]; 62 g ai/ha Postemergence): 98
- Plant response rating, Arrowleaf Sida ([7]; 125 g ai/ha Postemergence): 98
- Plant response rating, Barnyardgrass ([8]; 16 g ai/ha Postemergence): 15
- Plant response rating, Barnyardgrass ([8]; 31 g ai/ha Postemergence): 25
- Plant response rating, Barnyardgrass ([8]; 62 g ai/ha Postemergence): 30
- Plant response rating, Barnyardgrass ([8]; 125 g ai/ha Postemergence): 70
- Plant response rating, Waterhemp ([9]; 16 g ai/ha Postemergence): 90
- Plant response rating, Waterhemp ([9]; 31 g ai/ha Postemergence): 98
- Plant response rating, Waterhemp ([9]; 62 g ai/ha Postemergence): 95
- Plant response rating, Waterhemp ([9]; 125 g ai/ha Postemergence): 100
